The test system of data set [1] is thrombus formation (platelet factor-4 mRNA). Put plainly: FeCl3-induced inferior vena cava thrombosis model, PF-4 quantification (Example 19). It counts as in vivo, mouse. The settings on record: BALB/c mice; for PF-4 (percentage compared to PBS controls): FeCl3 vena cava. As for the experimental part:
Three groups of 8 male BALB/c mice were treated with 10 mg/kg, 20 mg/kg, or 40 mg/kg of ISIS 482584, administered subcutaneously twice a week for 3 weeks (weekly doses of 20 mg/kg, 40 mg/kg, or 80 mg/kg). Two control groups of 12 BALB/c mice each were treated with PBS, administered subcutaneously twice a week for 3 weeks. Two days after the last dose of antisense oligonucleotide or PBS, mice from all groups were anesthetized with 150 mg/kg ketamine mixed with 10 mg/kg xylazine, administered by intraperitoneal injection. Thrombus formation was induced with FeCl3 in all groups of anesthetized mice except the first control group.
In mice undergoing FeCl3 treatment, thrombus formation was induced by applying a piece of filter paper (2×4 mm) pre-saturated with 10% FeCl3 solution directly on the vena cava. After 3 minutes of exposure, the filter paper was removed. Thirty minutes after the filter paper application, a fixed length of the vein containing the thrombus was dissected out for platelet analysis. Liver was collected for RNA analysis.
Real-time PCR quantification of platelet factor-4 (PF-4) was used to quantify platelets in the vena cava as a measure of thrombus formation. PF-4 mRNA levels were measured using the murine primer probe set mPF4_LTS_00086 (forward sequence […], designated herein as SEQ ID NO: 2240; reverse sequence CGCAGCGACGCTCATG, designated herein as SEQ ID NO: 2241; probe sequence […], designated herein as SEQ ID NO: 2242). Results are presented as a percentage of PF-4 in ISIS oligonucleotide-treated mice, as compared to the two PBS-treated control groups. […] Therefore, reduction of PKK by the compound provided herein is useful for inhibiting thrombus formation.

The subject of a further data set is thrombus formation. Put plainly: FeCl3 induced mesenteric thrombosis model, platelet aggregation and fibrin formation (Example 21). It counts as in vivo, mouse. The settings on record: Swiss-Webster mice; for Fibrin formation, fluorescent intensity / Platelet aggregation, fluorescent intensity: 80 mg/kg/wk. As for the experimental part: ISIS 482584 was evaluated in the FeCl3 induced mesenteric thrombosis mouse model.
A group of 6-8 Swiss-Webster mice was treated with 40 mg/kg of ISIS 482584, administered subcutaneously twice a week for 3 weeks (weekly dose of 80 mg/kg). A control group of 6 Swiss-Webster mice was treated with PBS, administered subcutaneously twice a week for 3 weeks. Two days after the last dose of antisense oligonucleotide or PBS, mice from all groups were anesthetized with 75 mg/kg ketamine mixed with 25 mg/kg xylazine, administered by subcutaneous injection.
Rhodamine 6G dye at a dosage of 5 mg/kg was injected subcutaneously to stain platelets. Alexa-647-labeled anti-fibrinogen antibody at a dosage of 1 mg/kg was injected via tail vein injection to stain fibrin. The abdomen was opened by a middle incision. The visceral mesentery was spread on a glass coverslip and the mesenteric arterioles (70-120 μm) were located by observation under a microscope. Thrombus formation was induced by applying of cotton threads (2×0.3 mm) pre-saturated with 6% FeCl3 solution directly on the target vessel. After three minutes of exposure, the thread was removed and the color intensities of both the dyes were recorded by fluorescent microscopy (Olympus FluoView 1000 confocal laser scanning microscope) with appropriate filters for 70 min.
The results for platelet aggregation in the control and treatment groups are presented in Table 83, expressed in arbitrary units (a.u.). […] The results for fibrin formation in the control and treatment groups are presented in Table 84, also expressed in arbitrary units (a.u.).

A short description of data set [2]: Hematological parameters in cynomolgus monkeys (Example 8). To be noted: cynomolgus monkey, 40 mg/kg sc, day 87 or day 88.
Protocol: Prior to the study, the monkeys were kept in quarantine for a 30-day period, during which the animals were observed daily for general health. The monkeys were 2-4 years old and weighed between 2 and 4 kg. Ten groups of four randomly assigned male cynomolgus monkeys each were injected subcutaneously with ISIS oligonucleotide or PBS. PBS solution or ISIS oligonucleotides at a dose of 40 mg/kg were administered initially with a loading regimen consisting of four doses on the first week of the study (days 1, 3, 5, and 7), followed by a maintenance regimen consisting of once weekly administration starting on Day 14 (weeks 2 to 13). Subcutaneous injections were performed in clock-wise rotations at 4 sites on the back; one site per dose. The injection sites were delineated by tattoo, while sedated using ketamine, and were separated by a minimum of 3 cm.
To evaluate any effect of ISIS oligonucleotides in cynomolgus monkeys on hematologic parameters, blood samples of approximately 1.2 mL of blood was collected pre-dose and on day 87 or day 88 from each of the available study animals in tubes containing K2-EDTA. Samples were analyzed for red blood cell (RBC) count, white blood cells (WBC) count, platelet count, hemoglobin content and hematocrit, using an ADVIA2120i hematology analyzer (SIEMENS, USA).
The subject of the next data set is PKK mRNA. The data set is described as follows: PKK mRNA in cynomolgus monkey liver (Example 8). It counts as in vivo. To be noted: primates, Example 8. A digest of the protocol:
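Cynomolgus monkeys were dosed with human antisense oligonucleotides cross-reactive with the rhesus sequence. Liver RNA taken on day 87 or 88, 48 h after the last dose, was assayed by real-time PCR (primer probe set RTS3455) and normalized to cyclophilin. Values are percent PKK mRNA inhibition versus PBS control.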

Strand notation (5' to 3'): a small letter for the sugar, then the base; units joined by * are phosphorothioate-linked, units joined directly phosphodiester-linked; [ ] holds rarer units or linkages, { } end groups; capitals alone tell only the bases. e = 2'-O-(2-methoxyethyl) (MOE); [5mC] = 5-methylcytosine; d = 2'-deoxy (DNA)

In the case of “ISIS 482584: 5-10-5 MOE gapmer targeting murine PKK, GGCATATTGGTTTTTGGAAT; SEQ ID NO: 2244 (antisense eG*eG*e[5mC]*eA*eT*dA*dT*dT*dG*dG*dT*dT*dT*dT*dT*eG*eG*eA*eA*eT)”, the “PF-4 (percentage compared to PBS controls)” value in data set [1] (20 mg/kg/wk sc 3 weeks) is on record as 62%; in data set [1] (40 mg/kg/wk sc 3 weeks), 34%; in data set [1] (80 mg/kg/wk sc 3 weeks), 25%. Further, the “PF-4 in vena cava” value in data set [1] (10-40 mg/kg s.c. twice a week for 3 weeks, vs PBS control) is “significant reduction of PF-4”. In addition, the “Fibrin formation, fluorescent intensity” value is on record as 54 a.u in the data set with thrombus formation (time 752 sec); 7 a.u with thrombus formation (time 1018 sec); 1 a.u in the data set on thrombus formation (time 1284 sec); 10 a.u in the data set on thrombus formation (time 1550 sec); 16 a.u in the data set on thrombus formation (time 1815 sec); 15 a.u in the data set with thrombus formation (time 2081 sec). For the same substance, the “Fibrin formation, fluorescent intensity” value in the data set on thrombus formation (time 2347 sec) was 61 a.u; in the data set with thrombus formation (time 2613 sec), 88 a.u; in the data set on thrombus formation (time 2879 sec), 141 a.u; in the data set with thrombus formation (time 3144 sec), 150 a.u; in the data set on thrombus formation (time 3410 sec), 173 a.u; with thrombus formation (time 3676 sec), 160 a.u. Besides, in the data set on thrombus formation (time 3944 sec), the “Fibrin formation, fluorescent intensity” value was determined as 128 a.u. For the same substance, the “Platelet aggregation, fluorescent intensity” value with thrombus formation (time 752 sec) is 74 a.u; in the data set on thrombus formation (time 1018 sec) it was 11 a.u; in the data set on thrombus formation (time 1284 sec) it was 7 a.u; with thrombus formation (time 1550 sec), 0 a.u; with thrombus formation (time 1815 sec), 0 a.u; with thrombus formation (time 2081 sec), 0 a.u. In addition, the “Platelet aggregation, fluorescent intensity” value with thrombus formation (time 2347 sec) was found to be 0 a.u; with thrombus formation (time 2613 sec), 38 a.u; in the data set with thrombus formation (time 2879 sec), 148 a.u; with thrombus formation (time 3144 sec), 129 a.u; in the data set on thrombus formation (time 3410 sec) it was 169 a.u; in the data set on thrombus formation (time 3676 sec), 131 a.u. The “Platelet aggregation, fluorescent intensity” value in the data set with thrombus formation (time 3944 sec) worked out at 87 a.u. Besides, the “fibrin formation” value in the data set with thrombus formation (80 mg/kg/week, vs PBS) was “Fibrin formation was reduced”. In addition, the “platelet aggregation” value in the data set on thrombus formation (80 mg/kg/week, vs PBS) is given as “Platelet aggregation was reduced”.

In data set [2], “Tes Ges mCes Aes Aes Gds Tds mCds Tds mCds Tds Tds Gds Gds mCds Aes Aes Aes mCes Ae [ISIS 546254]” showed an HCT of 41%, a Hemoglobin of 12.4 g/dL, a Platelets of 436000 µL⁻¹ and an RBC of 5.3e+06 µL⁻¹. Moreover, the WBC in data set [2] turned out to be 11000 µL⁻¹. In the data set with PKK mRNA, the “inhibiting PKK mRNA and protein expression in primates” value is “effective for inhibiting PKK mRNA and protein expression”.
